Assay results published in the supplement of paper PMC8837787.

test system: Saccharomyces cerevisiae ABC16-Green Monster; test: growth inhibition at single dose (up to 150 µM), below the 70% cut-off for dose-response; higher = more potent; conditions: 18 h; 30 °C; YPD
Procedure, shortened: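 Percent growth inhibition is the reported value. Drug-sensitive S. cerevisiae ABC16-Green Monster cultures in log phase (OD600 0.1–0.2), 200 µl per well in 96-well plates, received each library compound once at 150 µM in biological duplicates, with untreated cultures run alongside. Growth was followed by OD600 at 0 h and after 18 h at 30 °C. Dose-response was not done for compounds below 70% in both replicates.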

Compound | growth inhibition at single dose [%]
CC(=O)NC[C@H]1CN(c2ccc(N3CCSCC3)c(F)c2)C(=O)O1 | < 70
COc1cc2c(cc1OC)CN(CCNc1ncnc3sccc13)CC2 | < 70
Nc1ccn(C2O[C@H](CO)[C@@H](O)[C@H]2O)c(=O)n1 (stereo partly specified) | < 70
c1cncc(NCc2ccc(-c3cc4ccncc4cc3OC3CCNCC3)s2)c1 | < 70
Cc1cc(OCC(=O)NCc2ccccc2)c2cc(Br)ccc2n1 | < 70
Cc1ccc(S(=O)(=O)Nc2cccc3ncccc23)s1 | < 70
Cc1ccc(NC(=O)CC2COc3ccccc3O2)cc1Cl (stereo unspecified) | < 70
CCCCCCn1c(=N)n(CC(O)COc2cccc(C)c2)c2ccccc21 (stereo unspecified) | < 70
CC(C)CCNCC(O)Cn1c2ccccc2c2ccccc21 (stereo unspecified) | < 70
CN(C)c1ccc(-c2nc3cc(N)ccc3[nH]2)cc1 | < 70
O=C(OCc1ccccc1)N1CCC(c2cc(-c3ccncc3)c(-c3ccc(F)cc3)[nH]2)CC1 | < 70
O=C(NCc1ccccc1)/C(=C/c1ccc(OCc2ccccc2)cc1)c1nc2ccccc2[nH]1 | < 70
Cc1cc(C)c2c(C)c(C(=O)Nc3nc4ccccc4s3)sc2n1 | < 70
CNc1snc(C)c1C(=O)OCc1csc(-c2ccccc2)n1 | < 70
CCc1ccc(CNCC(O)c2ccccc2)cc1 (stereo unspecified) | < 70
CC1CC(C)C[N+](=C2C=C(N3CCCC3)CC(C)(C)C2)C1 (stereo unspecified) | < 70
CCN1CCN(Cc2ccc(NC(=O)c3cc4ccc5cccnc5c4[nH]3)cc2)CC1 | < 70
CS(=O)(=O)c1cccc(-c2cnc3[nH]cc(-c4ccc(CCC(=O)O)cc4)c3c2)c1 | < 70
Clc1cc(Br)ccc1-c1ccc(CNCC2CCNCC2)o1 | < 70
O=C(CN1C(=O)CCOc2ccccc21)N1CCN(C(=O)C2COc3ccccc3O2)CC1 (stereo unspecified) | < 70
C[C@]1(O)C[C@@H](c2nc(-c3ccc4ccc(-c5ccccc5)nc4c3)c3c(N)nccn32)C1 | < 70
Cc1cc(C(=O)COC(=O)c2ccccc2C(F)(F)F)c(C)n1Cc1ccccc1Cl | < 70
CCOc1ccccc1NC(=O)/C=C/c1nnc2c3ccccc3cnn12 | < 70
Oc1ccc(Cl)cc1CNc1nc2ccccc2[nH]1 | < 70

Compound | growth inhibition at single dose [%]
Cc1ccc(C)c(Cn2c(N3CCC(C(=O)NCc4cccs4)CC3)nc3ccccc32)c1 | < 70
NS(=O)(=O)c1cccc(-c2ccc3ncc(N4CCOCC4)nc3c2)c1 | < 70
CCCCNCC(O)(c1ccc(Cl)cc1)c1ccc(Cl)cc1 | < 70
COc1ccc(-c2nc(NC(=O)CS(=O)(=O)c3ccc(F)cc3)sc2C)cc1 | < 70
O=C(NCCCN1CCC(N2CCCCC2)CC1)C1=Cc2cc(Br)ccc2OC1 | < 70
O=C(Nc1ccc([N+](=O)[O-])cc1)Nc1cccnc1Cl | < 70
CCCS(=O)(=O)N1CCC(CO)(Cc2ccccc2C(F)(F)F)CC1 | < 70
Cc1ccc2c(CSc3nc(N)c(C#N)cc3C#N)cc(=O)oc2c1C | < 70
Cc1nc(-c2ccc(CCNc3ncnc4sccc34)cc2)cs1 | < 70
CCOC(=O)c1c(C)[nH]c(C(=O)CSc2nnc(C3CC3)n2N)c1C | < 70
Cc1c(C)c(C)c(S(=O)(=O)Nc2ccc3c[nH]nc3c2)c(C)c1C | < 70
O=C(c1ccc(NCCO)cc1)C1C[C@H]1c1ccc(Cl)cc1 (stereo partly specified) | < 70
CC(=O)Nc1cccc2c1CCN(c1ncnc3sccc13)C2 | < 70
COc1ccccc1CNC(=O)C1c2ccccc2C(=O)N(CC(C)C)C1c1cccs1 (stereo unspecified) | < 70
CN1CCN(CCCOc2ncc(Nc3ncc(-c4ccc(C(F)(F)F)c(F)c4)nc3C(N)=O)cn2)CC1 | < 70
O=C(Nc1nccs1)c1ccc(N2CCCCCC2)nc1 | < 70
Cc1cc(C)cc(Nc2cc(C)nc3nc(C(F)(F)F)nn23)c1 | < 70
Cc1ccc(C(=O)c2oc3ccc4c(C)cc(=O)oc4c3c2C)cc1 | < 70
COc1ccc(-c2c(C)nn3c(NCc4ccccn4)cc(C)nc23)cc1OC | < 70
O=C(Nc1ccc(Cl)cc1)Nc1nnc(CSCc2ccc(Cl)cc2)s1 | < 70
Cc1ccc(C(=O)COC(=O)Cc2n[nH]c(=O)c3ccccc23)s1 | < 70
COc1ccc(NC(=O)c2ccn[nH]2)cc1NC(=O)c1ccc(Cl)cc1F | < 70
CC(C)(C)c1cc(C(=O)Nc2cccnc2)cc(C(=O)Nc2cccnc2)c1 | < 70
COC(=O)c1cc(OC)c(OC)cc1NS(=O)(=O)c1ccc(OC)cc1 | < 70

Compound | growth inhibition at single dose [%]
O=C(Nc1ccc(Oc2cc(C(F)(F)F)cc(C(F)(F)F)c2)cc1)Nc1ccc(OC(F)(F)F)cc1 | < 70
Cc1sc(NC(=O)c2ccccc2)c(C(c2cccs2)N2CCN(c3ccccc3)CC2)c1C (stereo unspecified) | < 70
CCCOc1ccc(/C=N/NC(=S)Nc2ccccc2[N+](=O)[O-])c(O)c1 | < 70
COc1cc(Nc2ncnc3ccsc23)cc(OC)c1 | < 70
O=C(Nc1cc(Cl)cc(Cl)c1)c1cc(Br)ccc1O | < 70
O=C(Nc1nnc(S)s1)c1cc(Br)ccc1Cl | < 70
CCn1nc(C)c(Sc2nccn2C)c1C | < 70
COc1ccc(C=C2SC(Nc3ccccc3)=NC2=O)cc1 | < 70
FC(F)(F)c1cnc(Sc2nnc(-c3ccncc3)o2)c(Cl)c1 | < 70
CCCCCCc1cc2cc(-c3nc4ccccc4[nH]3)c(=Nc3ccccc3C)oc2cc1O | < 70
CCS(=O)(=O)N(Cc1ccco1)Cc1cc2ccc(C)cc2nc1O | < 70
O=C(NC1CCN(c2nccc(C(F)(F)F)n2)CC1)c1cccs1 | < 70
COc1ccc(-c2csc(N/C=C3/C(=O)NC(=O)c4ccccc43)n2)cc1OC | < 70
CN(C)c1ccc(C=Cc2nc(=O)c3ccccc3o2)cc1 | < 70
Oc1ccc(C2=CCN(c3ncnc4ccccc34)CC2)cc1 | < 70
CCCc1c(C)nc2ccc(Br)cc2c1O | < 70
Nc1cccnc1Nc1ccc(Cl)cc1 | < 70
CNc1nnc(Sc2ncnc3ccsc23)s1 | < 70
CN1C=C(c2ccc3ccccc3n2)C(c2c[nH]c3ccccc23)c2ccccc21 (stereo unspecified) | < 70
CNC(=O)c1ccc2n1CCN(C(=O)OCc1ccccc1)C2C (stereo unspecified) | < 70
O=C(Nc1ccc(F)c(-c2nc3cc(-c4ccccc4)cnc3[nH]2)c1)N1CCCC1 | < 70
CC(C)C(NC(=O)Cc1cccc2ccccc12)C(=O)Nc1cccc(C#N)c1 (stereo unspecified) | < 70
COc1ccc(S(=O)(=O)N(Cc2cccs2)c2ccc3c(c2)OCCO3)cc1NC(C)=O | < 70
CCCc1c(C)nc2ccccc2c1O | < 70

Compound | growth inhibition at single dose [%]
CN1CCCN(C(c2ccccc2)c2ccc(Cl)cc2)CC1 (stereo unspecified) | < 70
Cc1ccc(/C=C2\CCc3c2nc2ccccc2c3C(=O)OCC#N)cc1 | < 70
CCOc1ccc(C=Cc2nc(=O)c3ccccc3o2)cc1 | < 70
CCN(CC)CCCCCCNc1cc(OC)cc2c(C)ccnc12 | < 70
CCCCCCc1cc(O)c2c3c(c(=O)oc2c1)CCC(C)C3 (stereo unspecified) | < 70
CC(C)Cn1c2c(c(O)c(C(=O)Nc3ncccc3O)c1=O)CCCC2 | < 70
Oc1c(I)cc(I)c2cccnc12 | < 70
Nc1ncnc2c1ncn2C[C@@H](O)[C@@H](O)C(=O)O | < 70
Cc1cc(C)n2ncc(C(=O)Nc3cccc(/C=C/c4ccccn4)c3)c2n1 | < 70
O=S(=O)(c1ccc(Cl)cc1)N1CCN(C(=S)NCc2ccco2)CC1 | < 70
Nc1c(C(=O)c2ccc3c(c2)NC(=O)CO3)sc2c1c(=O)[nH]c(=O)n2Cc1ccccc1 | < 70
CCc1cc(C(=O)Nc2ncccc2O)sc1C | < 70
O=[N+]([O-])c1ccc(C=NNc2nc3ccccc3[nH]2)cc1 | < 70
CC(C)C(Oc1cccc2ccccc12)C(=O)O (stereo unspecified) | < 70
O=C(NCc1nnc2n1CCCCC2)c1ccc(-c2ccc(F)cc2)o1 | < 70
Fc1ccccc1-n1cnnc1SC(c1ccccc1)c1ccccc1 | < 70
COc1ccc(-c2cncc3ccc(C(=O)NCCCn4ccnc4)nc23)cc1 | < 70
Cc1ccnc(NC(c2cccc(OCc3ccccc3)c2)c2ccc3cccnc3c2O)c1 (stereo unspecified) | < 70
COc1ccc(CNC2CCN(c3ccc(NC(=O)c4cccc(Cl)c4)cc3)CC2)cc1OC | < 70
CCCC(c1nnnn1C1CCCCC1)N1CCN(C(=O)c2ccco2)CC1 (stereo unspecified) | < 70
COc1cccc(OCC(=O)c2ccc(Br)cc2)c1 | < 70
Cc1cccc(Nc2nc(N)c3ccccc3n2)c1 | < 70
CN1CCCN(C(=O)CCNC(=O)/C=C/c2ccco2)c2nc3ccccc3nc21 | < 70
O=C(c1ccccc1F)N(Cc1ccc(Cl)cc1)c1ccccn1 | < 70
